How the values were obtained:
Thrombin = Thrombin (Homo sapiens, UniProt P00734); assay: biochemical; details: TAME hydrolysis; read-out: ID50, thrombin
[1] = Toxicity, median lethal dose (LD50); details: in vivo
Kallikrein = assay: Anti-kallikrein activity (inhibition of TAME hydrolysis); format: biochemical; details: read-out: ID50, kallikrein
Outline: (§1)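 Inhibition of enzymatic TAME (tosylarginine methyl ester) hydrolysis, per Muramatsu et al. Values are ID50, the molar concentration of compound inhibiting 50% of each enzyme's TAME-hydrolysing activity.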

Plasmin = Plasmin (Homo sapiens, UniProt P00747); assay: Anti-plasmin activity (inhibition of TAME hydrolysis); format: biochemical; details: read-out: ID50, plasmin
Chain of Plasmin (P00747 581-810 limits assumed, species assumed): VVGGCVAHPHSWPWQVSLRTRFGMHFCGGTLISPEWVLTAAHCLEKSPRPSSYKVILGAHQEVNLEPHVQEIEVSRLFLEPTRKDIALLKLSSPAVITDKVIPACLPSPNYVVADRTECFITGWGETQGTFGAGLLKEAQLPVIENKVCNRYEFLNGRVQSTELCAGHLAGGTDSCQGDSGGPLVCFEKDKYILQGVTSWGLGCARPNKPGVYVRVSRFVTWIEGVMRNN
Chain of Plasmin (P00747 97-580 limits assumed, species assumed): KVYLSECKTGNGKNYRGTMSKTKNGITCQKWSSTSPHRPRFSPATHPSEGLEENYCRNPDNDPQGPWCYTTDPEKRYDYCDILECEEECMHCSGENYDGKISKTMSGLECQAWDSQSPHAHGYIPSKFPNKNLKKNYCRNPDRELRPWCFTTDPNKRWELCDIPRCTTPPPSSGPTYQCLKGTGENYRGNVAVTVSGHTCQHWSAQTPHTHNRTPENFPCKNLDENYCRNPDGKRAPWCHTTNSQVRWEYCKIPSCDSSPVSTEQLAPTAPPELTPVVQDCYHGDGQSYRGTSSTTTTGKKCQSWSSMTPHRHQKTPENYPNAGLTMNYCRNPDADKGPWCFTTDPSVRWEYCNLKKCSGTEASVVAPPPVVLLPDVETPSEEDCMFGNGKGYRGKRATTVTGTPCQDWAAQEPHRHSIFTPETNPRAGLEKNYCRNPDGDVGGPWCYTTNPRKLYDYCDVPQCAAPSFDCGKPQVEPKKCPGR
Outline: as §1

Cls = target: T1, Cls (Homo sapiens, UniProt P09871); assay: Anti-Cl esterase activity, Cls (ATEE hydrolysis); format: biochemical; details: hydrolysis of ATEE; read-out: Anti-Cl activity, Cls (50% inhibition)
T1 sequence (P09871 438-688 limits assumed): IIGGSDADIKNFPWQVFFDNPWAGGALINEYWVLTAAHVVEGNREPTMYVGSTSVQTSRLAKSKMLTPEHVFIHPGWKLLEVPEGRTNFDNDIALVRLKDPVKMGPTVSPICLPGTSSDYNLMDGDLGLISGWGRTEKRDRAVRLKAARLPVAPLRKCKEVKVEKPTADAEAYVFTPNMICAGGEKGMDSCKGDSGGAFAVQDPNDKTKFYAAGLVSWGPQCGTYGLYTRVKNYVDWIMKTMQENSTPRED
T1 sequence (P09871 16-437 limits assumed): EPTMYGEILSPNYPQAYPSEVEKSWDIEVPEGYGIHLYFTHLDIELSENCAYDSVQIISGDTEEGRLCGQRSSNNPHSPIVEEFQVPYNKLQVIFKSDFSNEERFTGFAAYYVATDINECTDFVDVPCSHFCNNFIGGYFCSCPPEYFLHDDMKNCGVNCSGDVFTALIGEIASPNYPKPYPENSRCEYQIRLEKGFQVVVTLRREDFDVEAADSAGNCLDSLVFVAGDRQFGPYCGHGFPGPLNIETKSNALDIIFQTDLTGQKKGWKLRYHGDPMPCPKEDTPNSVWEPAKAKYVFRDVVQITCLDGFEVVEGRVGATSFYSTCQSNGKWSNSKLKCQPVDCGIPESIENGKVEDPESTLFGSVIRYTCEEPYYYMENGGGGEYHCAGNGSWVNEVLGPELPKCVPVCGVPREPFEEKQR
Description: The anti-Cl esterase (Clr, Cls) activity was determined according to the method of Okamura et al. [K. Okamura, M. Muramatsu and B. Fujii, Biochem. Biophys. […] The figures in Table 2 have the following meanings:
Cls: Molar concentration of the test compound which inhibits 50% of the ability of Cls to hydrolyse ATEE (acetyltyrosin ethyl ester).

complement = assay: Inhibition of complement mediated hemolysis; format: cell-based
Clr = target: T2, Clr (Homo sapiens, UniProt P00736); assay: Anti-Cl esterase activity, Clr (AAME hydrolysis); format: biochemical; details: hydrolysis of AAME; read-out: Anti-Cl activity, Clr (ID50)
T2 sequence (P00736 464-705 limits assumed): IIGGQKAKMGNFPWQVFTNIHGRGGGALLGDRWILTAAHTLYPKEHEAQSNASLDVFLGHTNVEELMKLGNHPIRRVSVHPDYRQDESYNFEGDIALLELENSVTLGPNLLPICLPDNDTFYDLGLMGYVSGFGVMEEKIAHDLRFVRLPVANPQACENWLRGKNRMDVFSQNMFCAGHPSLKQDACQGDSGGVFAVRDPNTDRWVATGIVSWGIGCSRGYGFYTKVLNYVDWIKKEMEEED
T2 sequence (P00736 18-463 limits assumed): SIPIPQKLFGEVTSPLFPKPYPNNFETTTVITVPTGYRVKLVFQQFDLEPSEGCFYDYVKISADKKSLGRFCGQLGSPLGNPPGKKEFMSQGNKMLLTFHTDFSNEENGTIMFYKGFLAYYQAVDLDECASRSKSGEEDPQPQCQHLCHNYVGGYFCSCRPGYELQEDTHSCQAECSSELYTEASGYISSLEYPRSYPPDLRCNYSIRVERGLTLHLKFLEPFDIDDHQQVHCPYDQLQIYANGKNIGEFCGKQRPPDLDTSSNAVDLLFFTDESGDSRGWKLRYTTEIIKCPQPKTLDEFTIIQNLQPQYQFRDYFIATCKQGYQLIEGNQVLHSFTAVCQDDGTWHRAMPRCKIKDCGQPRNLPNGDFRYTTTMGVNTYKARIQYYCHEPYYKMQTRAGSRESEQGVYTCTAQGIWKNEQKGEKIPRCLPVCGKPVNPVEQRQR
Description: The anti-Cl esterase ([…]) activity was determined according to the method of Okamura et al. [K. Okamura, M. Muramatsu and B. Fujii, Biochem. Biophys.

Trypsin = target: T3, Trypsin (Bos taurus, UniProt P00760); assay: Anti-trypsin activity (inhibition of TAME hydrolysis); format: biochemical; details: read-out: ID50, trypsin
T3 sequence (P00760 24-246): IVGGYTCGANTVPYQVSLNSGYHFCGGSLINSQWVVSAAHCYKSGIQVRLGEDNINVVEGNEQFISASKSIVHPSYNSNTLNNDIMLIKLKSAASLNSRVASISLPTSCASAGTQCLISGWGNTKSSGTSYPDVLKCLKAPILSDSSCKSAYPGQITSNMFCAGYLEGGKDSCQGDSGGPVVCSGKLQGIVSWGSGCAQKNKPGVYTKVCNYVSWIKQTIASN
Outline: as §1

Masugi nephritis = assay: Therapeutic experiment on Masugi's nephritis (protein content of urine); format: in vivo; details: rats; for Percentage inhibition (decrease in protein content of urine): methanesulfonate, oral 100 mg/kg twice a day, eight days
Excerpt: The protein content of the animal's urine is used as the parameter for the progress of Masugi nephritis. […] From the result, it may be said that the compound of this invention having a Cl-esterase inhibitory activity is useful as a remedy for the glomerulonephritis and is also useful as a remedy for autoimmune diseases inclusive of glomerulonephritis.
Experimental nephritis were induced in rats by intravenous injection of nephrotoxin prepared according to the method of Shibata et al. ["Experimental Immunoallergy.", p. 664 (1971), Bunkodo, Tokyo]. Each member of the medicine administered group had been orally administered with methanesulfonate of Compound No. 69 at a dose rate of 100 mg/kg body weight, twice a day, for eight consecutive days. On the second day from the beginning of medicine administration, nephrotoxin was intravenously administered. The effectiveness was evaluated by determining the difference in protein content of urine between the nephritic group (control group) and the medicine administered group on the 6th day (5th day after the administration of nephrotoxin) and 9th day from the beginning of medicine administration.
The percentage inhibition indicates the degree of decrease in protein content of urine of the medicine administered group as compared with the control group.

Row | SMILES | IC50 (Thrombin) [µM] | LD50 ([1]; ip) [mg/kg] | LD50 ([1]; po) [mg/kg] | IC50 (Kallikrein) [µM] | IC50 (Plasmin) [µM] | IC50 (Cls) [µM] | Inhibition of complement mediated hemolysis (%) (complement; compound at 1 × 10^-4) | Inhibition of complement mediated hemolysis (%) (complement; compound at 1 × 10^-5) | Inhibition of complement mediated hemolysis (%) (complement; compound at 1 × 10^-6) | Inhibition of complement mediated hemolysis (%) (complement; compound at 1 × 10^-7) | IC50 (Clr) [µM] | IC50 (Trypsin) [µM] | Percentage inhibition (decrease in protein content of urine) (Masugi nephritis; 5th day) [%] | Percentage inhibition (decrease in protein content of urine) (Masugi nephritis; 8th day) [%] | protein content of urine, Masugi nephritis (Masugi nephritis; result in words)
1 | N=C(N)Nc1ccc(C(=O)Oc2ccc(C(=N)N)cc2[N+](=O)[O-])cc1 [Compound 70, 4-amidino-2-nitrophenyl 4-guanidinobenzoate] | 0.5 | 200 | 2500 | 40 | 0.7 | 0.2 | 100 | 100 | 97.0 | 46.1 | 3 | 0.03 | – | – | –
2 | N=C(N)Nc1ccc(C(=O)Oc2ccc(C(=N)N)cc2C(=O)c2ccccc2)cc1 [Compound 69, 4-amidino-2-benzoylphenyl 4-guanidinobenzoate] | 0.2 | 192 | 1700 | 0.4 | 2 | 0.4 | 100 | 99.6 | 86.5 | 7.2 | 2 | 0.08 | 81 | 39 | distinctly decreased the protein content of urine
3 | N=C(N)c1ccc(OC(=O)CCCc2ccccc2)c(C(=O)c2ccccc2)c1 [Compound 33] | > 10 | – | – | > 10 | > 10 | > 10 | 94.1 | 20.4 | 0 | 0 | > 10 | > 10 | – | – | –
4 | CCCCOc1ccc(C(=O)Oc2ccc(C(=N)N)cc2[N+](=O)[O-])cc1 [Compound 44] | 2 | – | – | 0.3 | 3 | 0.6 | 99.1 | 94.1 | 29.0 | 29.2 | 4 | 0.02 | – | – | –
5 | CN(C)c1ccc(C(=O)Oc2ccc(C(=N)N)cc2C(=O)c2ccccc2)cc1 [Compound 66, 4-amidino-2-benzoylphenyl 4-dimethylaminobenzoate] | 0.2 | – | – | 0.2 | 0.4 | 0.04 | 99.1 | 96.4 | 41.7 | 0 | 3 | 0.01 | – | – | –
6 | N=C(N)c1ccc(OC(=O)c2ccccc2)c(S(=O)(=O)O)c1 [Compound 28, 5-amidino-2-benzoyloxybenzenesulfonic acid] | 3 | – | – | > 10 | 7 | 3 | 79.1 | 25.0 | 22.8 | 23.8 | > 10 | 10 | – | – | –
7 | Cc1ccc(C(=O)Oc2ccc(C(=N)N)cc2[N+](=O)[O-])cc1 [Compound 37] | 0.3 | – | – | 0.7 | 0.4 | 0.06 | 95.9 | 37.3 | 16.0 | 0 | 0.04 | 0.05 | – | – | –
